{"source": "patent US10806794B2", "about": "“Protease inhibitors having enhanced features” (priority 2008, dated 2020)", "key": {"dog plasma proteins": {"system": "dog plasma proteins", "test": "Plasma protein binding by equilibrium dialysis, dog plasma", "format": "in vitro ADME", "conditions": "fraction unbound", "method": "In assays to estimate binding of test compounds to plasma proteins, test compound solutions (5 μM) are prepared in buffer and species-specific plasma (final DMSO concentration 0.5%). The plasma-containing solution is added to one side of the membrane of an equilibrium dialysis system, and the plasma-free is added to the other side. Dialysis was allowed to reach equilibrium by incubation for two hours at 37° C. The concentration of compound on both sides of the membrane was measured using LC-MS/MS."}, "PBMCs": {"system": "PBMCs", "test": "Toxicity in PBMCs cultured without virus (XTT)"}, "[1]": {"system": "Sprague-Dawley rat hepatocytes", "test": "Metabolic stability in Sprague-Dawley rat hepatocytes", "format": "in vitro ADME", "conditions": "0.1 uM"}, "beagle dog hepatocytes": {"system": "beagle dog hepatocytes", "test": "Metabolic stability in beagle dog hepatocytes", "format": "in vitro ADME", "conditions": "0.1 uM"}, "[2]": {"system": "monocyte-derived dendritic cells", "test": "Cytotoxicity in monocyte-derived dendritic cells (XTT)", "format": "cell-based, human", "source_text": "Cell viability is directly proportional to the amount of reduced XTT product formed."}, "HIV-1Ba-L": {"system": "HIV-1Ba-L", "test": "Anti-HIV-1 activity in monocyte-derived dendritic cells (reverse transcriptase activity)", "format": "cell-based", "conditions": "dendritic cells", "method": "Freshly separated human PBMCs from a single donor were suspended in DPBS at 4×10^6 cells/mL and incubated in a 75 cm^2 cell culture flask for 90 minutes at 37° C., 5% CO2. Non-adherent cells were removed by washing with DPBS. Differentiation to dendritic cells was induced by 7 day incubation in RPMI 1640 medium supplemented with 10% fetal bovine serum, 2 mmol/L L-glutamine, 25 mM HEPES, 100 Units/mL penicllin, 10 μg/mL streptomycin, 50 ng/mL recombinant human granulocyte-macrophage-colony stimulating factor (GM-CSF), and 50 ng/mL recombinant human Interleukin (IL)-4 at 37° C., 5% CO2. The cells were further incubated for two days in the same cytokine cocktail supplemented with 10 ng/mL lipopolysaccharide (LPS). The monocyte-derived dendritic cells were then suspended at 10×10^6 cells/mL in complete medium (RPMI 1640 medium supplemented with 10% fetal bovine serum, 2 mmol/L L-glutamine, 25 mM HEPES, 100 Units/mL penicllin, 10 μg/mL streptomycin) and infected for 2 h at 37 C, 5% CO2 with HIV-1Ba-L at MOI=50-150 TCID50. […] Compound diluted in complete medium was added to cells. After seven days in culture, HIV-1 replication was quantified by measuring HIV-1 reverse transcriptase activity in cell-free supernatants using a standard radioactive tritiated thymidine triphosphate (TTP) polymerization incorporation assay. For each reaction, 1 μL of TTP (1 Ci/mL) was combined with 4 μL of dH2O, 2.5 μL of poly rA and oligo dT (0.5 mg/mL and 1.7 Units/mL, respectively), and 2.5 μL reaction buffer (125 μL 1 mol/L EGTA, 125 μL dH2O, 125 μL 20% Triton X-100, 50 μL 1 mol/L Tris, pH 7.4, 50 μL 1 mol/L DTT, 40 μL 1 mol/L MgCl2), then 10 μL of the resulting mixture was combined with 15 µL of virus-containing supernatant in a round-bottom microtiter plate and the plate incubated at 37° C. in a humidified incubator for 90 minutes. Following incubation, 10 μL of the reaction volume was spotted onto a DEAD filter mat, then washed 5×5 min with 5% sodium phosphate buffer, 2×1 minute in distilled water, 2×1 minute in 70% ethanol, then air dried. The filter mat was incubated with Opti-Fluor O scintillation fluid, and radioactivity quantified using a Wallac 1450 Microbeta Trilux liquid scintillation counter."}, "Caco-2 cells": {"system": "Caco-2 cells", "test": "Bi-directional permeability in Caco-2 monolayers", "method": "Absorption properties of various compounds were measured using bi-directional permeability assays in Caco-2 cells. […] The efflux ratio is calculated as the ratio of the Papp(B→A)/Papp(A→B)."}}, "note": "Read-outs that look alike come from different tables or passages of the source.", "data": [{"smiles": "COCCOC(=O)NC(C(=O)NC(Cc1ccccc1)C(O)CN(Cc1ccc(-c2ccccn2)cc1)NC(=O)C(NC(=O)OC)C(C)(C)C)C(C)(C)C", "note": "(stereo not shown) [mono-mPEG1-Atazanavir]", "values": [{"measurement": "Dog Plasma Protein Binding Fu ± SD", "setting": "dog plasma proteins", "result": "0.208 ± 0.0317"}, {"measurement": "PBMC TC50 ± SD", "setting": "PBMCs", "result": 135900, "unit": "nM"}, {"measurement": "CLint ± SEM", "setting": "[1]", "result": "82.5 ± 0.0100", "unit": "μL/min/10^6 cells"}, {"measurement": "t1/2", "setting": "[1]", "result": 16.8, "unit": "min"}, {"measurement": "CLint ± SEM", "setting": "beagle dog hepatocytes", "result": "31.1 ± 0.000512", "unit": "μL/min/10^6 cells"}, {"measurement": "t1/2", "setting": "beagle dog hepatocytes", "result": 44.5, "unit": "min"}, {"measurement": "TC50", "setting": "[2]", "result": ">1000", "unit": "nM"}, {"measurement": "EC50", "setting": "HIV-1Ba-L; first determination, read-out: EC50 First", "result": 0.16, "unit": "nM"}, {"measurement": "EC50", "setting": "HIV-1Ba-L; mean of three, read-out: Mean EC50", "result": 0.183, "unit": "nM"}, {"measurement": "EC50", "setting": "HIV-1Ba-L; second determination, read-out: EC50 Second", "result": 0.25, "unit": "nM"}, {"measurement": "EC50", "setting": "HIV-1Ba-L; third determination, read-out: EC50 Third", "result": 0.14, "unit": "nM"}, {"measurement": "Efflux ratio (B→A/A→B)", "setting": "Caco-2 cells; Caco-2 monolayers", "result": 26}, {"measurement": "A→B, ×10^−6", "setting": "Caco-2 cells; human, Caco-2", "result": 1.25, "unit": "cm/s"}]}]}
